Results on ten compounds are retold here after patent publication US4649200A, “Substituted pyrroles with opioid receptor activity” (Regents of the University of Minnesota, priority 1986, dated 1987).

For one assay, the system named is mouse vas deferens (MVD). The assay can be described thus: Agonism on the mouse vas deferens preparation (MVD). Type of assay: cell-based. As to conditions: for Emax at 1 µM: Mus musculus, read-out: MVD Agonism (maximal response at highest concentration). As for the experimental part: (§1) This assay was performed according to the description by Henderson et al., Brit. J. Pharmacol., 46, 764 (1972), the disclosure of which is incorporated by reference herein. Both vasa deferentia were dissected out of mice and mounted singly through two platinum ring electrodes in a 10 ml organ bath. The bath contained Krebs bicarbonate solution that was continuously bubbled with 95% O2 and 5% CO2. The organ bath was maintained at 37° C. The tissue was attached to an isometric transducer and stimulated transmurally with rectangular pulses ([…], 1 ms duration, supramaximal voltage). Drugs were added cumulatively to the bath in 10 to 50 ul amounts and washed out after noting their maximum effect.
(§2) Compounds IIIa-IIIh and TENA were tested on the electrically-stimulated guniea pig ileal longitudinal muscle (GPI) and, where appropriate, the mouse vas deferens preparation (MVD).
(§3) ^a For ligands that are partial or pure antagonists, the highest
(§4) concentration and maximal response is given. Potencies of pure agonists

The next assay deals with T1, mu receptor (Cavia porcellus, UniProt A0ACM8Q262).
T1 construct: antagonism of morphine
T1 sequence (A0ACM8Q262 1-400): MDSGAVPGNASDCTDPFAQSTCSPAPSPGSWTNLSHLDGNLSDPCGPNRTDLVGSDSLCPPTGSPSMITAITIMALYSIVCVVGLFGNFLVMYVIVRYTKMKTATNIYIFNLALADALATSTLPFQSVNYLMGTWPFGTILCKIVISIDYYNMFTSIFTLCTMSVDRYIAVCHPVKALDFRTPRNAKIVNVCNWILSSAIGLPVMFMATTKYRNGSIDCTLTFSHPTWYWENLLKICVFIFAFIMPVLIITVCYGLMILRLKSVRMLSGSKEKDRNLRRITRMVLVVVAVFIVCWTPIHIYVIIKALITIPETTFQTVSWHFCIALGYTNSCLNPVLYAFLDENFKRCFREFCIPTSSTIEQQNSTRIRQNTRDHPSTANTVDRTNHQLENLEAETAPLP
The assay can be described thus: Antagonism of morphine sulfate (mu agonist) on the GPI, IC50 ratio. Type of assay: cell-based, guinea pig. The protocol: (§5) Ilea from guinea pigs were taken approximately 10 cm from the ileocaecal junction, and a strip of longitudinal muscle with the myenteric plexus attached was prepared by method of Rang et al., Brit. J. Phamacol., 22, 356 (1964), the disclosure of which is incorporated by reference herein. A 1 cm portion of this strip was then mounted between two platinum electrodes placed in a 10 ml organ bath and connected to an isometric transducer; contractions were recorded on a polygraph. Contractions of the ileal strip were initiated by supramaximal rectangular pulses in all preparations (80 V of 0.5 ms duration at a frequency of 0.1 Hz). Krebs bicarbonate solution containing 1.25 uM chlorpheniramine maleate was the bathing solution and was continuously bubbled with 95% O2 and 5% CO2. The organ bath was maintained at 36°-37° C. The longitudinal muscle strip was allowed to equilibrate with continuous stimulation for a minimun of 90 min. Cumulative concentration-response curves were determined after drugs were added to the bath in 10- to 50-uL amounts and washed out with two 10 ml portions of buffer after noting their maximum effects.

The target in assay [1] is T2, kappa opioid receptor (Cavia porcellus, UniProt P41144).
T2 construct: a strip of longitudinal muscle with the myenteric plexus attached was prepared; from tissue; host or cells: guinea pig ileal longitudinal muscle strip with myenteric plexus
T2 sequence (P41144 whole entry): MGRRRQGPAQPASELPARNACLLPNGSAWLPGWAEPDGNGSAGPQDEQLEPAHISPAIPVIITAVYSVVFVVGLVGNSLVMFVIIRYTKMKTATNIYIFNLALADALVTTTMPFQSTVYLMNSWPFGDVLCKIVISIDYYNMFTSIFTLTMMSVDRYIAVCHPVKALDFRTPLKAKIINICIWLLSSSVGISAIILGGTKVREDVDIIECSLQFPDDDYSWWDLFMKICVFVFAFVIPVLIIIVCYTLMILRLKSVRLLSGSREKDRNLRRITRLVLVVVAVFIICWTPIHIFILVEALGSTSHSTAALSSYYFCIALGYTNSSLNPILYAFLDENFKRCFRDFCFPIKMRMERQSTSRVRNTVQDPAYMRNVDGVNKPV
The assay can be described thus: Antagonism of U50488H (selective kappa agonist) on the GPI, IC50 ratio. Format: cell-based, guinea pig. The settings on record: for GPI IC50 Ratio, U50488H: IC50 of agonist in presence of antagonist / control IC50. As for the experimental part:
as §5

Assay [2] has as its target T2, kappa opioid receptor. As to the kind of experiment: Antagonism of ethylketazocine (EK, kappa agonist) on the GPI, IC50 ratio. Format: cell-based, guinea pig. The protocol:
as §5

Assay [3] relates to guinea pig ileal longitudinal muscle (GPI). As to the kind of experiment: Agonism on electrically stimulated guinea pig ileal longitudinal muscle (GPI). Type of assay: cell-based. The protocol: as §5, §2, §3, §4
(IIIeh) are relative to morphine = 1.

The target in a further assay is T3, delta opioid receptor (Mus musculus, UniProt P32300).
T3 construct: Both vasa deferentia were dissected out of mice; from tissue; host or cells: mouse vas deferens
T3 sequence (P32300 whole entry): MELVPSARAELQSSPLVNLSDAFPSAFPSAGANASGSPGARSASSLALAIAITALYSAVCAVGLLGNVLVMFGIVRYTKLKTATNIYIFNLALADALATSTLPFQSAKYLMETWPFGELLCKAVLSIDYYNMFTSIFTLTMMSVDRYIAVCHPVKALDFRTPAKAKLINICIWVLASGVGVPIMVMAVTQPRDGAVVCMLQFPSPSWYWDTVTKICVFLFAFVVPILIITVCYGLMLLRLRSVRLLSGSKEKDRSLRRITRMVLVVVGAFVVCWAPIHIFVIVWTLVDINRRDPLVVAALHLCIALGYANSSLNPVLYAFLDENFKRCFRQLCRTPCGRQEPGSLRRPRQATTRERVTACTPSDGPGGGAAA
The assay can be described thus: Antagonism of DADLE (selective delta agonist) on the MVD, IC50 ratio. As to conditions: IC50 of agonist in presence of antagonist / control IC50. Type of assay: cell-based. The protocol:
as §1

In a further assay the target is T4, kappa receptors (Mus musculus, UniProt P33534).
T4 construct: tested in vivo using the mouse writhing procedure; from tissue
T4 sequence (P33534 whole entry): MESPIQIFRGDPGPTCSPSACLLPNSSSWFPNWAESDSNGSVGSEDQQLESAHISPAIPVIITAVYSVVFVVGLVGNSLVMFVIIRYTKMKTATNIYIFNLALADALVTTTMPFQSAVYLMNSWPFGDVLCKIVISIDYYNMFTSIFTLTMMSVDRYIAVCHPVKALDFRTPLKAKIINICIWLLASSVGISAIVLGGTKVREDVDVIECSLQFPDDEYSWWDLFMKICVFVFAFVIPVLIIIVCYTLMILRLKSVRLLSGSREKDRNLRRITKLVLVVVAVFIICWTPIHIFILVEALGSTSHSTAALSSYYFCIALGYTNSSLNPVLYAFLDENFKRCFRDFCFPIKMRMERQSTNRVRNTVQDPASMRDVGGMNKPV
As to the kind of experiment: Mouse writhing procedure, antagonism of agonist. As to conditions: antagonist ICV. Format: in vivo. The protocol:
(§6) Mice were treated with 50 nmol of the agonist (morphine, EK, or U50488H) subcutaneously and the antagonist was administered intracerebroventricularly (ICV).
In general terms: Writhing tests count abdominal constrictions after an irritant is injected.

The nature of assay [4]: Mouse writhing procedure, antagonism of agonist. The settings on record: morphine 50 nmol s.c.; antagonist ICV. Type of assay: in vivo. As for the experimental part: as §6
The test system of the next assay is kappa-opioid receptors. As to the kind of experiment: Kappa-opioid antagonist selectivity (comparison of IC50 ratios, GPI and MVD). Format: cell-based, guinea pig. The protocol:
as §5
This assay was performed according to the description by Henderson et al., Brit. J. Pharmacol., 46, 764 (1972), the disclosure of which is incorporated by reference herein. […]

A further assay relates to kappa receptor. As to conditions: cited from earlier work.
A further assay concerns mu receptors. The settings on record: cited from earlier work.
[5] abbreviates: antagonist 2 nM, IC50 of agonist in presence of antagonist / control IC50.
Setting [6] is: antagonist 20 nM, IC50 of agonist in presence of antagonist / control IC50.
Setting [7] is: Cavia porcellus, read-out: GPI Agonism (maximal response at highest concentration).

Structures are written as SMILES. Entries after “also recorded” stand apart in the source; their conditions may differ.

For `Oc1ccc2c3c1O[C@H]1c4[nH]c5c(c4C[C@@]4(O)[C@@H](C2)N(CC2CC2)CC[C@]314)C[C@@]1(O)[C@H]2Cc3ccc(O)c4c3[C@@]1(CCN2CC1CC1)[C@H]5O4` [IIIa], the Emax at 1 µM in the assay on mouse vas deferens (MVD) worked out at 16%. Moreover, the results for the “GPI IC50 Ratio, Morphine Sulfate” value at mu receptor (setting [5]) and at mu receptor (setting [6]) were 0.92 ± 0.16 and 4.7 ± 0.8, respectively. On kappa opioid receptor [1], the “antagonism of U50488H in GPI, IC50 ratio values compared with EK” value was “higher IC50 ratio values were observed”. Further, the “GPI IC50 Ratio, U50488H” value is given as 11.0 ± 1.1 on kappa opioid receptor [1] (antagonist 2 nM) and 178 ± 18 at kappa opioid receptor [1] (antagonist 20 nM). The results for the “GPI IC50 Ratio, Ethylketazocine” value at kappa opioid receptor [2] (setting [5]) and at kappa opioid receptor [2] (setting [6]) were 8.8 ± 0.13 and 49.7 ± 15.6, respectively. Further, the Emax at 0.2 µM in assay [3] (Cavia porcellus, @ 200 nM, read-out: GPI Agonism (maximal response at highest concentration)) came out at 14%. At delta opioid receptor (antagonist 20 nM), the “MVD IC50 Ratio, DADLE” value was found to be 2.0 ± 0.1.
For `Cn1c2c(c3c1[C@@H]1Oc4c(O)ccc5c4[C@@]14CCN(CC1CC1)[C@H](C5)[C@]4(O)C3)C[C@@]1(O)[C@H]3Cc4ccc(O)c5c4[C@@]1(CCN3CC1CC1)[C@H]2O5` [IIIb], at kappa receptors (EK 50 nmol s.c.), the “ED50 ratio [(agonist+IIIb)/agonist control], EK” value is reported as 3.85. The “ED50 ratio [(agonist+IIIb)/agonist control], U50488H” value at kappa receptors (U50488H 50 nmol s.c.) amounted to 15.71. Moreover, the “ED50 ratio [(agonist+IIIb)/agonist control], morphine” value in [4] was determined as 0.85. Moreover, in the assay with mouse vas deferens (MVD), the “agonist activity in MVD” value was “no agonist effect” and the Emax at 1 µM came out at 42%. In addition, the “antagonism of morphine in GPI” value on mu receptor (20 nM) is listed as “no significant antagonism of morphine was observed at 20 nM”. In addition, the “GPI IC50 Ratio, Morphine Sulfate” value on mu receptor (setting [6]) came to 1.2 ± 0.3. In the assay with kappa-opioid receptors, the “kappa-opioid antagonist selectivity” value is recorded as “possesses the greatest kappa selectivity; also recorded: "pure" kappa-opioid receptor antagonist”. The “GPI IC50 Ratio, Ethylketazocine” value at kappa opioid receptor [2] (setting [6]) stood at 165 ± 30. Moreover, the “agonist activity in GPI” value in assay [3] is on record as “no agonist effect”. Also, the Emax at 1 µM in [3] (setting [7]) worked out at 0%. Moreover, the “MVD IC50 Ratio, DADLE” value on delta opioid receptor (antagonist 20 nM) came to 4.5 ± 0.7.
For `CCn1c2c(c3c1[C@@H]1Oc4c(O)ccc5c4[C@@]14CCN(CC1CC1)[C@H](C5)[C@]4(O)C3)C[C@@]1(O)[C@H]3Cc4ccc(O)c5c4[C@@]1(CCN3CC1CC1)[C@H]2O5` [IIIc], the Emax at 1 µM was 41% with mouse vas deferens (MVD) and 0% in assay [3] (setting [7]). Also, the “GPI IC50 Ratio, Morphine Sulfate” value on mu receptor (setting [6]) stood at 2.2 ± 0.7. On kappa opioid receptor [2] (setting [6]), the “GPI IC50 Ratio, Ethylketazocine” value turned out to be 147 ± 20. Further, the “MVD IC50 Ratio, DADLE” value is given as 1.8 ± 0.3 on delta opioid receptor (antagonist 2 nM) and 4.2 ± 1.1 at delta opioid receptor (antagonist 20 nM).
Take `CC(=O)Oc1ccc2c3c1O[C@H]1c4[nH]c5c(c4C[C@@]4(O)[C@@H](C2)N(CC2CC2)CC[C@]314)C[C@@]1(O)[C@H]2Cc3ccc(OC(C)=O)c4c3[C@@]1(CCN2CC1CC1)[C@H]5O4` [IIId]: the Emax at 1 µM (in the assay with mouse vas deferens (MVD); in assay [3] (setting [7])) was 32% throughout. Besides, at mu receptor (setting [6]), the “GPI IC50 Ratio, Morphine Sulfate” value is 8.0 (2). The “GPI IC50 Ratio, Ethylketazocine” value at kappa opioid receptor [2] (setting [6]) is reported as 697 (2). Moreover, on delta opioid receptor (antagonist 20 nM), the “MVD IC50 Ratio, DADLE” value is on record as 3.5 ± 1.3.
For `COc1ccc2c3c1O[C@H]1c4[nH]c5c(c4C[C@@]4(O)[C@@H](C2)N(CC2CC2)CC[C@]314)C[C@@]1(O)[C@H]2Cc3ccc(OC)c4c3[C@@]1(CCN2CC1CC1)[C@H]5O4` [IIIe], the Emax at 1 µM stood at 39% in the assay on mouse vas deferens (MVD) and 0% in assay [3] (setting [7]). For the same compound, at mu receptor (setting [6]), the “GPI IC50 Ratio, Morphine Sulfate” value is reported as 0.8 (2). Further, the “GPI IC50 Ratio, Ethylketazocine” value at kappa opioid receptor [2] (setting [6]) is 4 (2). Moreover, the “MVD IC50 Ratio, DADLE” value on delta opioid receptor (antagonist 20 nM) came to 0.6 ± 0.1.
Regarding `CN1CC[C@]23c4c5ccc(O)c4O[C@H]2c2[nH]c4c(c2C[C@H]3[C@H]1C5)C[C@H]1[C@H]2Cc3ccc(O)c5c3[C@@]1(CCN2C)[C@H]4O5` [IIIf], the “GPI IC50 Ratio, Morphine Sulfate” value on mu receptor (compound 10 nM) was found to be 0.3 ± 0.1. Further, the “GPI IC50 Ratio, Ethylketazocine” value at kappa opioid receptor [2] (compound 10 nM) was 0.5 ± 0.04. The “GPI Agonism, potency of pure agonists relative to morphine = 1” value in assay [3] came out at 3.1 ± 0.4.
With `COc1ccc2c3c1O[C@H]1c4[nH]c5c(c4C[C@H]4[C@@H](C2)N(C)CC[C@]314)C[C@H]1[C@H]2Cc3ccc(OC)c4c3[C@@]1(CCN2C)[C@H]5O4` [IIIg], on mu receptor (compound 100 nM), the “GPI IC50 Ratio, Morphine Sulfate” value worked out at 0.5 ± 0.07. Also, at kappa opioid receptor [2] (compound 100 nM), the “GPI IC50 Ratio, Ethylketazocine” value is 0.4 ± 0.07. Besides, the “GPI Agonism, potency of pure agonists relative to morphine = 1” value in assay [3] amounted to 0.2 ± 0.04.
Regarding `CN1CC[C@]23c4c5ccc(O)c4O[C@H]2c2[nH]c4c(c2C[C@@]3(O)[C@H]1C5)C[C@@]1(O)[C@H]2Cc3ccc(O)c5c3[C@@]1(CCN2C)[C@H]4O5` [IIIh], on mu receptor (compound 50 nM), the “GPI IC50 Ratio, Morphine Sulfate” value is 0.9 ± 0.2. The “GPI IC50 Ratio, Ethylketazocine” value on kappa opioid receptor [2] (compound 50 nM) was determined as 0.4 ± 0.05. Moreover, the “GPI Agonism, potency of pure agonists relative to morphine = 1” value in [3] is reported as 0.23 ± 0.05.
Consider `Oc1ccc2c3c1O[C@H]1[C@H](NCCOCCOCCN[C@@H]4CC[C@@]5(O)[C@H]6Cc7ccc(O)c8c7[C@@]5(CCN6CC5CC5)[C@H]4O8)CC[C@@]4(O)[C@@H](C2)N(CC2CC2)CC[C@]314` [TENA, reference compound], for which the “GPI IC50 Ratio, Morphine Sulfate” value on mu receptor (setting [6]) worked out at 4.20 ± 1.20. Also, the “GPI IC50 Ratio, Ethylketazocine” value on kappa opioid receptor [2] (setting [6]) is reported as 19.6 ± 2.40. For the same compound, the Emax at 0.01 µM in assay [3] (Cavia porcellus, @ 10 nM, read-out: GPI Agonism (maximal response at highest concentration)) was found to be 10%. The “times more effective in antagonizing U50488H relative to morphine” value in the assay with kappa receptor (U50488H vs morphine) is “about 27 times”. The “times more effective against ethylketazocine relative to morphine” value in the assay with kappa receptor (ethylketazocine vs morphine) is “about five”. Further, the “MVD IC50 Ratio, DADLE” value on delta opioid receptor (antagonist 20 nM) is 1.2.
Regarding `O=C1CC[C@@]2(O)[C@H]3Cc4ccc(O)c5c4[C@@]2(CCN3CC2CC2)[C@H]1O5` [naltrexone], the “potency at mu receptors compared with kappa” value in the assay with mu receptors is reported as “much greater potency at mu receptors”.
